Test results: patent publication US8936793B2, “Synthetic archaeal glycolipid adjuvants” (National Research Council of Canada, priority 2006, dated 2015)

Assays:
[1] = system: antigen specific EG.7 targets; assay: CTL activity in splenocytes of immunized mice, Cr51-assay; type: in vivo, C57BL/6 mice; details: 15 μg OVA s.c. 0 and 3 weeks; spleens 7 weeks after first immunization
Method: To determine adjuvant activity, various synthetic archaeosomes with OVA entrapped (OVA-archaeosomes) were used to immunize female C57BL/6 mice on days 0 and 21 (6-8 weeks old on first injection). Injections were subcutaneous at the tail base with 0.1 ml PBS containing 15 μg OVA entrapped in 0.2-0.63 mg lipids. Blood samples were collected from the tail vein for anti-OVA IgG/IgM antibody titration done by ELISA (13). In some cases faecal extracts were assayed for IgA (and IgG) to assess mucosal responses following systemic immunizations. Fresh faeces (about 30 mg dry weight) were collected from 4 mice/group, and extracted by adding 0.5 ml of phosphate buffered saline (pH 7.0) containing 10% fetal calf serum and 0.1% sodium azide. Homogenized samples were centrifuged and Elisa measured anti OVA antibody in supernatants. Spleens were collected to determine CTL activity using the Cr^51-assay with specific and non-specific targets EG.7 and EL-4, respectively (14). In Elispot assays antigen-specific CD8^+ T cell activity was measured in splenic cells from immunized mice by determining the number of SIINFEKL stimulated IFN-γ-secreting cells per 5×10^5 splenic cells (15).

[2] = system: Listeria monocytogenes (LM)-OVA construct; assay: Protection against LM-OVA challenge after vaccination, splenic CFU; type: in vivo; details: glyco-archaeol/DPPG/chol (25/55/20, mol %), FIG. 13
Method: FIG. 13 illustrates protection against LM-OVA challenge after vaccination with OVA-adjuvant combinations. C57BL/6J mice were immunized on day 0 and 21 with 15 ug OVA entrapped in various synthetic archaeosomes composed of the respective synthetic glyco-archaeol/DPPG/chol (25/55/20, mol %). At 8 weeks, mice were challenged with 10^4 intravenous dose of Listeria monocytogenes (LM)-OVA construct. Mice were euthanized 3 days later. Mean±SEM of splenic colony forming units (CFU) is shown for each group.

[3] = system: antigen-specific CD8+ T cell; assay: Antigen-specific CD8+ T cell activity in blood by tetramer assay; type: in vivo, C57BL/6J mice; details: glyco-archaeol/DPPG/chol (25/55/20, mol %); data not shown
Method: Mice vaccinated with synthetic archaeosomes containing an appropriate antigen were protected from infection (FIG. 13). […] The lower CD8^+ T cell response observed for this latter archaeosome previously appears to be in part due to the shorter period from first injection to assay in FIG. 7C. In this example (FIG. 13), the antigen-specific CD8^+ T cell activity was measured in blood by tetramer assay and found to be about 30% as high in the maltotriose-A group compared to the gentiotriose-A group (data not shown).

Macrophages J774A.1 = assay: Up-regulation of co-stimulatory molecule CD80 on APCs, flow cytometry; type: cell-based; details: 25 μg liposomes or archaeosomes 48 h; LPS 10 μg 24 h; anti-CD80-PE
Method: Macrophages J774A.1 were incubated for 48 h with 25 μg of archaeosomes prior to staining and analysis by flow cytometry (Table 13). […] Immuno-activity was clearly ascribed to the synthetic glyco-archaeal lipid.

Molecule | CTL adjuvant activity, FIG. 3 [1] | protection from LM-OVA infection [2] | antigen-specific CD8+ T cell activity in blood, % as high as the gentiotriose-A group [3] | Mean fluorescence Intensity CD80 (Macrophages J774A.1)
CC(C)CCC[C@@H](C)CCC[C@@H](C)CCC[C@@H](C)CCOC[C@H](CO[C@@H]1O[C@H](CO)[C@@H](O[C@H]2O[C@H](CO)[C@@H](O[C@H]3O[C@H](CO)[C@@H](O)[C@H](O)[C@H]3O)[C@H](O)[C@H]2O)[C@H](O)[C@H]1O)OCC[C@H](C)CCC[C@H](C)CCC[C@H](C)CCCC(C)C [maltotriose-A] | best adjuvant activity | striking protection | about 30% | 
Lipopolysaccharide |  |  |  | 33.2
